Results from patent US7476670B2, “Purine derivatives, method for preparing, pharmaceutical compositions and novel use” (Aventis Pharma S.A., priority 2003, dated 2009).
Converted amounts (≈) assume the structure as drawn. Counter-ions that a name gives are not always drawn. Like-named read-outs stand apart in the source and are kept apart here. Values belong to the compound of their own block, whether it stands above or below them.

Legend:
CaCiv1 = CaCiv1 (Candida albicans, UniProt A0A1D8PH53); assay: Assay for inhibition of CIV-CDK (CIV1) activity; type: biochemical
Source text: 1) Assay for Inhibition of CIV-CDK (CIV1) Activity
a) Preparation of the Reagents

JNK3 kinase = JNK3 kinase (Homo sapiens, UniProt P53779); assay: Assay for inhibition of JNK3 activity; type: biochemical; conditions: fluorescence polarization, ATP 6 μM; read-out: IC50s expressed as micromolar
Protocol: The inhibition of the kinase activity is determined by fluorescence polarization, the JNK3 kinase phosphorylates a peptide detected by adding an anti-phosphopeptide antibody coupled to a fluorescent label.
The assay is carried out in a final volume of 30 μl; all the reagents are prepared in a buffer: • 50 mM HEPES pH 7.5 • 0.03% triton X100 • 10 mM MgCl2 • 5% Glycerol • 1 mM DTT 10 μl of the 10-times concentrated inhibitor are added to 5 μl of enzyme (40 ng final concentration), and 5 μl of incubation buffer containing 100 ng of substrate and 10 μl of ATP (6 μM final concentration) are added.

SRC kinase = target: T1, SRC kinase (Homo sapiens, UniProt P12931); assay: Assay for inhibition of SRC kinase activity; type: biochemical; conditions: fluorescence polarization, read-out: percentage inhibition at 20 μM
T1 construct: purchased Upstate Biotechnology 14-117
Protocol: 2) Assay for Inhibition of SRC Kinase Activity
The inhibition is determined by fluorescence polarization, the […] kinase phosphorylates a peptide detected by adding an anti-phosphopeptide antibody coupled to a fluorescent label.
The assay is carried out in a final volume of 50 μl; all the reagents are prepared in a buffer: • 25 mM HEPES/NaOH pH 7.6 • 5 mM MgCl2 • 2 mM MnCl2 • 50 μM Na2VO4 5 μl of the 10-times concentrated inhibitor are added to 25 μl of enzyme (12 U/ml final concentration), (Upstate Biotechnology ref 14-117). After incubation for 5 minutes at ambient temperature, 10 μl of PolyGluTyr 4/1 (150 ng/ml final concentration) and 10 μl of ATP (5 μM final concentration) are added. The detection is carried out after incubation for 20 minutes at ambient temperature. • Results obtained expressed as percentage inhibition at 20 μM • Example 8 98% • Example 15 99% • Example 20 99% • Example 24 99% • Example 27 95% • Example 30 99% • Example 32 100% • Example 38 95% 3) Assay for Inhibition of CDK2 Activity

Abl kinase = assay: Assay for inhibition of Abl activity; type: biochemical; conditions: fluorescence polarization
Protocol: The inhibition of the kinase activity is determined by fluorescence polarization, the Abl kinase phosphorylates a peptide detected by adding an anti-phosphopeptide antibody coupled to a fluorescent label.
The assay is carried out in a final volume of 50 μl; all the reagents are prepared in a buffer: • 20 mM Hepes/NaOH pH 7.5 • 5 mM MgCl2 • 100 μM Na2VO4 • 1 mM DTT • 100 μM EDTA/NaOH • 0.01% Brij35 5 μl of the 10-times concentrated inhibitor are added to 25 μl of enzyme (1000 U/ml final concentration), (Calbiochem ref 102555). After incubation for 5 minutes at ambient temperature, 10 μL of PolyGT (400 ng/ml final concentration) and 10 μL of ATP (5 μM final concentration) are added. The detection is carried out after incubation for 15 minutes at 30° C. • Results obtained expressed as percentage inhibition at 20 μM • Example 24 100% • Example 2 100% • Example 32 100% 6) Assay for Inhibition of ZAP Kinase Activity

Candida glabrata = assay: Minimum inhibitory concentration in liquid medium, micro method (NCCLS M27-A); type: cell-based; conditions: Nakaseomyces glabratus; at least 80% inhibition of growth, read after 24-48 h at 37° C., RPMI 1640; read-out: MIC Candida glabrata
Protocol: (§1) The assay is carried out in a final volume of 40 μl; all the reagents are prepared in a buffer: • 50 mM HEPES pH 7.5 • 0.03% triton X100 • 10 mM MgCl2 • 5% Glycerol • 1 mM DTT 10 μl of the 10-times concentrated inhibitor are added to 5 μl of enzyme (75 ng final concentration), and 5 μl of peptide (1 μM final concentration), then 2.5 μl of incubation buffer containing 40 μM ATP and 2.5 μl of radiolabeled ATP, [^33P]ATP (500 nCi), are added. After incubation for 15 minutes at ambient temperature, 10 μl of incubation buffer containing 192 nM of substrate. […] Reference method for broth dilution antifungal susceptibility testing of yeasts. Approved Standard M27-A. NCCLS, Villanova, Pa.); the minimum concentration with which a visible decrease is observed in the cloudiness of the cell growth (at least 80% compared to a control without product) is the Minimum Inhibitory Concentration (MIC) of the antifungal agent with respect to the strain tested.
(§2) RPMI 1640 medium (liquid) without L-glutamine is supplemented with L-glutamine (0.3 g/l or 10.5 ml of a solution at 200 mM) and buffered with 34.54 g/l (0.165 M) of morpholinepropanesulfonic acid (MOPS). The medium is sterilized by filtration. 100 μl of RPMI medium are distributed into each well of a 96-well plate. The appropriate volume. of the antifungal solution is distributed in the first column of the microplate and supplemented with 200 μl of medium. Doubling dilutions are made so as to establish a range of 11 concentrations in each line of the microplate. The 12th well of each row will serve as a growth control. The cell suspension is prepared from a culture (liquid or agar) or from a frozen vial, and is diluted in RPMI medium so as to obtain a cell suspension at 5×10^3−2×10^4 cells/ml. 100 μl of the cell suspension are distributed in the microplate. For all species of Candida, the MIC is read after 24-48 h, and for Cryptococcus and Aspergillus after 48-72 h, of incubation at 37° C. in a normal atmosphere. The MIC is read by visual reading, determining the well which contains the lowest dose of antifungal agent which causes at least 80% inhibition of the growth of the fungus.

Candida albicans = assay: as above; type: cell-based; conditions: at least 80% inhibition of growth, read after 24-48 h at 37° C., RPMI 1640, read-out: MIC Candida albicans
Protocol: as §1, §2

[1] = target: Cyclin Dependent kinase 2 (CDK2) (Homo sapiens, UniProt P24941); assay: Assay for inhibition of CDK2 activity; type: biochemical; conditions: [33P]ATP, read-out: percentage inhibition at 20 μM
Protocol: The inhibition of the kinase activity of Cyclin Dependent kinase 2 (CDK2) is determined by measuring the phosphorylation of its substrate peptide.
The assay is carried out in a final volume of 50 μl.
The incubation buffer as follows:
• 50 mM Hepes/NaOH pH 7.5 • 10 mM MgCl2 • 1 mM DTT 5 μl of the 10-times concentrated inhibitor are added to 25 μl of incubation buffer containing 0.8 U/μL final concentration of the enzyme; 10 μL of incubation buffer containing 0.0025 mg/ml of peptide substrate are then added and, finally, 10 μL of incubation buffer containing 2 mM ATP and radiolabeled ATP, [^33P]ATP (0.25 μCi), are added. The reaction is stopped after incubation for 10 minutes at 37° C. • Results obtained expressed as percentage inhibition at 20 μM • Example 2 97% • Example 27 97% • Example 30 99% 4) Assay for Inhibition of CDK1 Activity

[2] = CaCiv1 with Cdk2 substrate, [33P]ATP, 30 min ambient temperature, read-out: IC50 as micromolar

Sequence of JNK3 kinase (P53779 whole entry): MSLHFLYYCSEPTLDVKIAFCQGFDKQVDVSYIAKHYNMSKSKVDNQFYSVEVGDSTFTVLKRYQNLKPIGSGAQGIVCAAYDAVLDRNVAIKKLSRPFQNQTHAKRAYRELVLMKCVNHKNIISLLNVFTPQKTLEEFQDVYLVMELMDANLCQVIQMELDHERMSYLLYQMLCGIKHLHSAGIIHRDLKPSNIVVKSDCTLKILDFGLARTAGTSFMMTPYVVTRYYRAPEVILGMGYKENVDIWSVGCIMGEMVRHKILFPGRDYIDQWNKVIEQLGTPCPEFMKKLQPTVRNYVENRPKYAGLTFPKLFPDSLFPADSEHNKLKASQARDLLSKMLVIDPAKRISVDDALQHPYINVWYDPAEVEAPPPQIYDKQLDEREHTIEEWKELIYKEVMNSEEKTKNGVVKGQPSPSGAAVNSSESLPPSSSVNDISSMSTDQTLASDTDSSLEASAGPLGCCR
Sequence of CaCiv1 (A0A1D8PH53 entry or part of it): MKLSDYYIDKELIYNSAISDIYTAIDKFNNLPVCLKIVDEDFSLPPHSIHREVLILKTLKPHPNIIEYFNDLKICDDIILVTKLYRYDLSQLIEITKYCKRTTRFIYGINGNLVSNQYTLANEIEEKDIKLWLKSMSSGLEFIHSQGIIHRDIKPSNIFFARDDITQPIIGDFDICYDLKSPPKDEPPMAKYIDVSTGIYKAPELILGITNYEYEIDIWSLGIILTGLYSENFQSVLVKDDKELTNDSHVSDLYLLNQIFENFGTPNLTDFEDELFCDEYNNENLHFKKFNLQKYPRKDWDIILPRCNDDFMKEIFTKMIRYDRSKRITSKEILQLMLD
T1 sequence (P12931 whole entry): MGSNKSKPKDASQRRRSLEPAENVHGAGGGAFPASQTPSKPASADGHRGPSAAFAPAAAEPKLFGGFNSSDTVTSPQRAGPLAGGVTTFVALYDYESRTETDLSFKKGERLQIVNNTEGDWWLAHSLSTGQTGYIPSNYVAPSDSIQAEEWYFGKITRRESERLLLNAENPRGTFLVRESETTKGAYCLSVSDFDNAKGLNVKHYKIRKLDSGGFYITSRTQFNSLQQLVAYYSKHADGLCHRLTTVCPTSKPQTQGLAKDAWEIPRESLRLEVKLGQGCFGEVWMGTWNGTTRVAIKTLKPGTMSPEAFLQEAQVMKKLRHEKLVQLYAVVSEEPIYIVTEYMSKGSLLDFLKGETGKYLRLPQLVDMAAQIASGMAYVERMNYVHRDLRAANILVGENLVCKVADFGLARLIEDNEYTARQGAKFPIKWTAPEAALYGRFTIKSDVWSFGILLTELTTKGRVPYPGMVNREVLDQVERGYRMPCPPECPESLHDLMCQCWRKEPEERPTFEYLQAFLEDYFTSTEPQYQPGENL

SMILES: COc1ccc2c(c1)ncn2-c1nc(N[C@H]2CC[C@H](N)CC2)nc2[nH]cnc12 [Example 15, Trans-N-[6-(5-methoxy-1H-benzimidazol-1-yl)-9H-purin-2-yl]-1,4-cyclohexanediamine dihydrochloride]
- IC50 (JNK3 kinase): 0.5 µM
- inhibition at 20 µM (SRC kinase): 99%
- IC50 (CaCiv1): 0.3 µM

SMILES: N[C@H]1CC[C@H](Nc2nc(N3CCc4cc(Br)ccc43)c3nc[nH]c3n2)CC1 [Example 32, Trans-N-[6-(5-bromo-2,3-dihydro-1H-indol-1-yl)-9H-purin-2-yl]-1,4-cyclohexanediamine]
- percentage inhibition at 20 μM (Abl kinase): 100%
- MIC (Candida glabrata): 64 µg/mL (≈ 149 µM)
- MIC (Candida albicans): 64 µg/mL (≈ 149 µM)
- inhibition at 20 µM (SRC kinase): 100%

SMILES: Cc1cc2ncn(-c3nc(N[C@H]4CC[C@H](N)CC4)nc4[nH]cnc34)c2cc1C [Example 5, Trans-N-[6-(5,6-dimethyl-1H-benzimidazol-1-yl)-9H-purin-2-yl]-1,4-cyclohexanediamine]
- MIC (Candida glabrata): 64 µg/mL (≈ 170 µM)
- MIC (Candida albicans): 64 µg/mL (≈ 170 µM)
- IC50 (CaCiv1; [2]): 1.1 µM

SMILES: Nc1ccc2c(c1)CCN2c1nc(N[C@H]2CC[C@H](N)CC2)nc2[nH]cnc12 [Example 46, Trans-N-[6-(5-amino-2,3-dihydro-1H-indol-1-yl)-9H-purin-2-yl]-1,4-cyclohexanediamine]
- IC50 (CaCiv1; [2]): 2 µM

SMILES: N[C@H]1CC[C@H](Nc2nc(N3CCc4ccc([N+](=O)[O-])cc43)c3nc[nH]c3n2)CC1 [Example 44, Trans-N-[6-(6-nitro-2,3-dihydro-1H-indol-1-yl)-9H-purin-2-yl]-1,4-cyclohexanediamine]
- IC50 (CaCiv1; [2]): 0.02 µM

SMILES: N[C@H]1CC[C@H](Nc2nc(-n3ccc4ccccc43)c3nc[nH]c3n2)CC1 [Example 16, Trans-N-[6-(1H-indol-1-yl)-9H-purin-2-yl]-1,4-cyclohexanediamine dihydrochloride]
- IC50 (CaCiv1): 0.31 µM

SMILES: N[C@H]1CC[C@H](Nc2nc(N3CCc4cc(F)ccc43)c3nc[nH]c3n2)CC1 [Example 38, Trans-N-[6-(5-fluoro-2,3-dihydro-1H-indol-1-yl)-9H-purin-2-yl]-1,4-cyclohexanediamine dihydrochloride]
- IC50 (JNK3 kinase): 0.42 µM
- inhibition at 20 µM (SRC kinase): 95%

SMILES: N[C@H]1CC[C@H](Nc2nc(N3CCc4ccc(C(F)(F)F)cc43)c3nc[nH]c3n2)CC1 [Example 40, Trans-N-[6-[2,3-dihydro-6-(trifluoro-methyl)-1H-indol-1-yl)-9H-purin-2-yl]-1,4-cyclohexanediamine]
- IC50 (CaCiv1; [2]): 0.2 µM

SMILES: N[C@H]1CC[C@H](Nc2nc(N3CCc4cc(Cl)ccc43)c3nc[nH]c3n2)CC1 [Example 7, Trans-N-[6-(5-chloro-2,3-dihydro-1H-indol-1-yl)-9H-purin-2-yl]-1,4-cyclohexanediamine]
- IC50 (CaCiv1; [2]): 3.6 µM

SMILES: CC[C@@H](CO)Nc1nc(-n2cnc3ccccc32)c2nc[nH]c2n1 [Example 27, (2S)-2-[[6-(1H-benzimidazol-1-yl)-9H-purin-2-yl]amino]-1-butanol]
- inhibition at 20 µM [1]: 97%
- IC50 (JNK3 kinase): 0.29 µM
- inhibition at 20 µM (SRC kinase): 95%
- IC50 (CaCiv1; [2]): 4.3 µM

Other lines, results leading:

- IC50 (CaCiv1; [2]): 3.6 µM
SMILES: CC(=O)c1ccc2c(c1)CCN2c1nc(N[C@H]2CC[C@H](N)CC2)nc2[nH]cnc12 [Example 39, Trans-1-[1-[2-[(4-aminocyclohexyl)amino]-9H-purin-6-yl]-2,3-dihydro-1H-indol-5-yl]ethanone]

- IC50 (CaCiv1; [2]): 0.95 µM
SMILES: N[C@H]1CC[C@H](Nc2nc(N3CCc4cc(NC(=O)Cc5cccs5)ccc43)c3nc[nH]c3n2)CC1 [Example 41, Trans-N-[1-[2-[(4-aminocyclohexyl)amino]-9H-purin-6-yl]-2,3-dihydro-1H-indol-5-yl]-2-thiopheneacetamide]

- IC50 (CaCiv1; [2]): 3.3 µM
SMILES: N[C@H]1CC[C@H](Nc2nc(N3CCc4cc(NC(=O)CCc5ccccc5)ccc43)c3nc[nH]c3n2)CC1 [Example 42, Trans-N-[1-[2-[(4-aminocyclohexyl)amino]-9H-purin-6-yl]-2,3-dihydro-1H-indol-5-yl]benzenepropanamide]

- IC50 (CaCiv1; [2]): 4.4 µM
SMILES: N[C@H]1CC[C@H](Nc2nc(N3CCc4cc(NC(=O)Nc5ccc(Cl)c(Cl)c5)ccc43)c3nc[nH]c3n2)CC1 [Example 43, Trans-N-[1-[2-[(4-aminocyclohexyl)amino]-9H-purin-6-yl]-2,3-dihydro-1H-indol-5-yl]-N′-(3,4-dichlorophenyl)urea]

- IC50 (CaCiv1; [2]): 1.3 µM
SMILES: CN(C)c1ccc(NC(=O)Nc2ccc3c(c2)CCN3c2nc(N[C@H]3CC[C@H](N)CC3)nc3[nH]cnc23)cc1 [Example 45, Trans-N-[1-[2-[(4-aminocyclohexyl)amino]-9H-purin-6-yl]-2,3-dihydro-1H-indol-5-yl]-N′-[4-(dimethylamino)phenyl]urea]
